Data set [1] deals with FMDV serotype O strain O/China. Type of data set: cell-based, foot-and-mouth disease virus (FMDV).
A short description of data set [2]: in vitro. To be noted: hamster.
In data set [3] the test system is FMDV serotype O strain O/China. Description: microbe, parasite or virus in culture. It is filed as cell-based, foot-and-mouth disease virus (FMDV).
For data set [4], the target named is FMDV 2C helicase (Foot-and-mouth disease virus serotype O, UniProt P03305). Type of data set: biochemical.
Chain of FMDV 2C helicase (P03305 1108-1425 limits assumed): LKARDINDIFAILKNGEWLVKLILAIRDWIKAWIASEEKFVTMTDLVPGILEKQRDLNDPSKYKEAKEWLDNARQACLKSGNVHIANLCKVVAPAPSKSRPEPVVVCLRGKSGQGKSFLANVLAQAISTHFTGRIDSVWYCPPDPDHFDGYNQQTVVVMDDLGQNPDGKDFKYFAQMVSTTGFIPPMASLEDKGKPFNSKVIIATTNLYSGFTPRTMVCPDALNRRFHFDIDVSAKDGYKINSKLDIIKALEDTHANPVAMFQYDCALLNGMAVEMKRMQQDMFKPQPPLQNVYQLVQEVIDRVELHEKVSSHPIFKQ
For data set [5], the system named is FMDV serotype O strain O/China. Type of data set: cell-based, foot-and-mouth disease virus (FMDV). This is another data set of the same source.
Data set [6] has as its system picornaviral 2C. To be noted: cited from earlier work.
The mark [7] stands for this setting: Foot-and-mouth disease virus, BHK-21, read-out: reduction of viral plaque formation (inhibitory efficacy).

Regarding `COc1ccc2c(c1)cc1n2CCN2CCCN=C12` [Compound C4, 11-methoxy-3,4,6,7-tetrahydro-2H-pyrimido[2′,1′:3,4]pyrazino[1,2-a]indole], the “antiviral activity by indirect immunofluorescence” value in data set [1] is recorded as “superior viral replication suppression”. Also, in data set [2], the CC50 stood at 284 µM. In data set [3], the “concentration achieving effective FMDV suppression” value worked out at 160 µM and the “inhibition rate (plaque assay)” value was found to be 99.7%. In addition, the inhibition type result in data set [4] is listed as “mixed inhibition”. In addition, in data set [5], the “suppression of FMDV RNA levels” value was “significantly outperformed 2-MPO”.

As for `Cl.N=C(N)N` [Guanidine hydrochloride], in data set [6], the “effect on helicase and ATPase activities” value was “suppresses helicase and ATPase activities”.

As to `Cc1cccc[n+]1[O-]` [Compound C1, 2-methylpyridine 1-oxide], the “antiviral activity by indirect immunofluorescence” value in data set [1] is “superior viral replication suppression”. Further, the viability (commonly a per cent measure of how many cells are alive, often set against a control) at 500 µM in data set [2] was > 50%. In addition, in data set [3], the “concentration achieving effective FMDV suppression” value was 400 µM and the “reduction of viral plaque formation” value amounted to 90.2%. Also, in data set [3] (setting [7]), the inhibition at 200 µM worked out at 97.3% and the inhibition at 400 µM stood at 99.8%. In addition, the inhibition type result in data set [4] is recorded as “mixed inhibition”.

For `Oc1ccccn1` [Compound C3, pyridin-2-ol], in data set [2], the viability at 500 µM was > 50% and the CC50 came out at 852 µM. In addition, in data set [4], the inhibition type entry was “competitive inhibition”.

Turning to `Sc1cnn[nH]1` [Compound C2, 1H-1,2,3-triazole-5-thiolate], in data set [2], the viability at 500 µM was > 50% and the CC50 is 1330 µM. Besides, the inhibition type entry in data set [4] is given as “competitive inhibition”.

Take `O=C1C=CC2(C=C1)OC(=O)c1ccccc1O2` [Compound C6, Spiro (4H-[1,3]benzodioxine-2,4′-[2,5]cyclohexadiene)-1′,4-dione]: the CC50 in data set [2] came out at 3 µM. For the same molecule, in data set [4], the inhibition type entry was “noncompetitive inhibition”.

`COc1cccc2c1NC(=O)C(Cl)(Cl)C2=O` [Compound C5, 3,3-dichloro-8-methoxy-2,4(1H,3H)-quinolinedione] came in with a CC50 in data set [2] of 127 µM. The inhibition type result in data set [4] is “noncompetitive inhibition”.

The record behind these values is PMC12197642 (Viruses, 2025).
